Where a name gives a salt, the structure may show the parent alone. A value given as a limit tells only on which side of the number the result lay.

This test concerns C57BL/6 mice. Nature of the test: animal or person. The test is classed as in vivo. The conditions noted are these: Mus musculus, sc, 0.5 h, s.c. administration, 30 min, 55° C. water, read-out: ED50 (mg/kg) at 30 min on C57BL/6 mice in Warm-water Tail-flick Test.
Take `CCOCC1(CCc2ccccc2)CCN(Cc2ccnn2C)CC1` [Compound 246, 4-(ethoxymethyl)-1-((1-methyl-1H-pyrazol-5-yl)methyl)-4-phenethylpiperidine]: the ED50 was > 10 mg/kg.

Consider `CCOCC1(CCc2cccs2)CCN(Cc2cccnc2)CC1` [Compound 247, 3-((4-(ethoxymethyl)-4-(2-(thiophen-2-yl)ethyl)piperidin-1-yl)methyl)pyridine], for which the ED50 is < 10 mg/kg.

Turning to `c1ccc(CCC2(C3CCCO3)CCN(CCc3cccnc3)C2)cc1` (stereo not drawn) [Compound 248, 3-(2-(3-phenethyl-3-(tetrahydrofuran-2-yl)pyrrolidin-1-yl)ethyl)pyridine], the ED50 is > 10 mg/kg.

In the case of `CCOCC1(CCc2ccccc2)CCN(Cc2cccnc2)C1` (stereo not drawn) [Compound 249, 3-((3-(ethoxymethyl)-3-phenethylpyrrolidin-1-yl)methyl)pyridine], the ED50 is < 10 mg/kg.

As for `CCOCC1(CCc2ccsc2)CCN(Cc2cnn(C)c2)C1` (stereo not drawn) [Compound 250, 4-((3-(ethoxymethyl)-3-(2-(thiophen-3-yl)ethyl)pyrrolidin-l-yl)methyl)-1-methyl-1H-pyrazole], the ED50 is < 10 mg/kg.

With `CCOCC1(CCc2cccs2)CCN(Cc2cccnc2)C1` (stereo not drawn) [Compound 251, 3-((3-(ethoxymethyl)-3-(2-(thiophen-2-yl)ethyl)pyrrolidin-1-yl)methyl)pyridine], the ED50 is < 10 mg/kg.

For `CCOCC1(CCc2ccsc2)CCN(Cc2cccnc2)C1` (stereo not drawn) [Compound 252], the ED50 was < 10 mg/kg.

With `CCOCC1(CCc2ccsc2)CCN(Cc2cnc(C)s2)C1` (stereo not drawn) [Compound 253, 5-((3-(ethoxymethyl)-3-(2-(thiophen-3-yl)ethyl)pyrrolidin-l-yl)methyl)-2-methylthiazole], the ED50 is > 10 mg/kg.

Take `CCOCC1(CCc2cccs2)CCN(Cc2cnc(C)s2)CC1` [Compound 254]: the ED50 was > 10 mg/kg.

For the molecule `CCOCC1(CCc2ccsc2)CCN(Cc2cnc(C)s2)CC1` [Compound 255, 5-((4-(ethoxymethyl)-4-(2-(thiophen-3-yl)ethyl)piperidin-1-yl)methyl)-2-methylthiazole], the ED50 is > 10 mg/kg.

As to `CCOCC1(CCc2cccs2)CCN(Cc2cnn(CC)c2)CC1` [Compound 256, 4-(ethoxymethyl)-1-((l-ethyl-1H-pyrazol-4-yl)methyl)-4-(2-(thiophen-2-yl)ethyl)piperidine], the ED50 was < 10 mg/kg.

Regarding `Cc1cncc(CN2CCC(CCc3ccccc3)(C3CCCO3)C2)c1` (stereo not drawn) [Compound 257, 3-methyl-5-((3-phenethyl-3-(tetrahydrofuran-2-yl)pyrrolidin-1-yl)methyl)pyridine], the ED50 is < 10 mg/kg.

Regarding `Cc1ccncc1CN1CCC(CCc2ccccc2)(C2CCCO2)C1` (stereo not drawn) [Compound 262, 4-methyl-3-((3-phenethyl-3-(tetrahydrofuran-2-yl)pyrrolidin-1-yl)methyl)pyridine], the ED50 is > 10 mg/kg.

With `Cc1ncccc1CN1CCC(CCc2ccccc2)(C2CCCO2)C1` (stereo not drawn) [Compound 263, 2-methyl-3-((3-phenethyl-3-(tetrahydrofuran-2-yl)pyrrolidin-1-yl)methyl)pyridine], the ED50 is < 10 mg/kg.

Turning to `Cc1ccc(CN2CCC(CCc3ccccc3)(C3CCCO3)C2)cn1` (stereo not drawn) [Compound 264, 2-methyl-5-((3-phenethyl-3-(tetrahydrofuran-2-yl)pyrrolidin-1-yl)methyl)pyridine], the ED50 was < 10 mg/kg.

For `c1ccc(CCC2(C3CCCO3)CCN(Cc3cnn(-c4cccnc4)c3)C2)cc1` (stereo not drawn) [Compound 265, 3-(4-((3-phenethyl-3-(tetrahydrofuran-2-yl)pyrrolidin-1-yl)methyl)-1H-pyrazol-1-yl)pyridine], the ED50 was > 10 mg/kg.

Regarding `CCOCC1(CCc2ccc(C)s2)CCN(Cc2cnn(C)c2)CC1` [Compound 266, 4-(ethoxymethyl)-1-((1-methyl-1H-pyrazol-4-yl)methyl)-4-(2-(5-methylthiophen-2-yl)ethyl)piperidine], the ED50 is > 10 mg/kg.

Take `CCOCC1(CCc2cc(C)cs2)CCN(Cc2cnn(C)c2)CC1` [Compound 267, 4-(ethoxymethyl)-1-((1-methyl-1H-pyrazol-4-yl)methyl)-4-(2-(4-methylthiophen-2-yl)ethyl)piperidine]: the ED50 was < 10 mg/kg.

Consider `CCOCC1(CCc2sccc2C)CCN(Cc2cnn(C)c2)CC1` [Compound 268, 4-(ethoxymethyl)-1-((1-methyl-1H-pyrazol-4-yl)methyl)-4-(2-(3-methylthiophen-2-yl)ethyl)piperidine], for which the ED50 was < 10 mg/kg.

For `CCOC[C@@]1(CCc2ccccc2)CCN(Cc2cccnc2)C1` [Compound 269], the ED50 is < 10 mg/kg.

Take `CCOCC1(CCc2cccs2)CCN(Cc2cnn(C(C)C)c2)CC1` [Compound 270, 4-(ethoxymethyl)-1-((1-isopropyl-1H-pyrazol-4-yl)methyl)-4-(2-(thiophen-2-yl)ethyl)piperidine HCl]: the ED50 was > 10 mg/kg.

Take `CCOCC1(CCc2cccs2)CCN(Cc2cnn(Cc3ccccc3)c2)CC1` [Compound 271, 1-((1-benzyl-1H-pyrazol-4-yl)methyl)-4-(ethoxymethyl)-4-(2-(thiophen-2-yl)ethyl)piperidine]: the ED50 is > 10 mg/kg.

On to `C1=CC(C2(CCc3ccsc3)CCN(Cc3cccnc3)C2)OC1` (stereo not drawn) [Compound 272, 3-((3-(2,5-dihydrofuran-2-yl)-3-(2-(thiophen-yl)ethyl)pyrrolidin-1-yl)methyl)pyridine], for which the ED50 was < 10 mg/kg.

`Cc1ccc(CN2CCC(CCc3ccccc3)(C3CCCO3)C2)c(C)n1` (stereo not drawn) [Compound 273, 2,6-dimethyl-3-((3-phenethyl-3-(tetrahydrofuran-2-yl)pyrrolidin-1-yl)methyl)pyridine]: the ED50 is < 10 mg/kg.

Consider `COc1ccc(CN2CCC(CCc3ccccc3)(C3CCCO3)C2)cn1` (stereo not drawn) [Compound 274, 2-methoxy-5-((3-phenethyl-3-(tetrahydrofuran-2-yl)pyrrolidin-1-yl)methyl)pyridine], for which the ED50 is > 10 mg/kg.

On to `CCOC[C@@]1(CCc2cccs2)CCN(Cc2cccnc2)C1` [Compound 275, (S)-3-((3-(ethoxymethyl)-3-(2-(thiophen-2-yl)ethyl)pyrrolidin-1-yl)methyl)pyridine], for which the ED50 was < 10 mg/kg.

With `CCOCC1(CCc2ccccc2)CCN(Cc2ccc(C)nc2)C1` (stereo not drawn) [Compound 276, 5-((3-(ethoxymethyl)-3-phenethylpyrrolidin-1-yl)methyl)-2-methylpyridine], the ED50 is < 10 mg/kg.

As to `CCOCC1(CCc2ccsc2)CCN(Cc2ccc(C)nc2)C1` (stereo not drawn) [Compound 277, 5-((3-(ethoxymethyl)-3-(2-(thiophen-3-yl)ethyl)pyrrolidin-l-yl)methyl)-2-methylpyridine], the ED50 is < 10 mg/kg.

`CCOCC1(CCc2ccsc2C)CCN(Cc2cnn(C)c2)CC1` [Compound 278, 4-(ethoxymethyl)-1-((1-methyl-1H-pyrazol-4-yl)methyl)-4-(2-(2-methylthiophen-3-yl)ethyl)piperidine]: the ED50 is < 10 mg/kg.

With `CCOCC1(CCc2csc(C)c2)CCN(Cc2cnn(C)c2)CC1` [Compound 279, 4-(ethoxymethyl)-1-((1-methyl-1H-pyrazol-4-yl)methyl)-4-(2-(5-methylthiophen-3-yl)ethyl)piperidine], the ED50 was > 10 mg/kg.

On to `CCOCC1(CCc2cscc2C)CCN(Cc2cnn(C)c2)CC1` [Compound 280, 4-(ethoxymethyl)-1-((1-methyl-1H-pyrazol-4-yl)methyl)-4-(2-(4-methylthiophen-3-yl)ethyl)piperidine], for which the ED50 is < 10 mg/kg.

As for `CCOCC1(CCc2cc(C)sc2C)CCN(Cc2cnn(C)c2)CC1` [Compound 281, 4-(2-(2,5-dimethylthiophen-3-yl)ethyl)-4-(ethoxymethyl)-1-((1-methyl-1H-pyrazol-4-yl)methyl)piperidine], the ED50 was > 10 mg/kg.

Take `CCOCC1(CCc2c(C)csc2C)CCN(Cc2cnn(C)c2)CC1` [Compound 282, 4-(2-(2,4-dimethylthiophen-3-yl)ethyl)-4-(ethoxymethyl)-1-((1-methyl-1H-pyrazol-4-yl)methyl)piperidine]: the ED50 was > 10 mg/kg.

Turning to `CCOCC1(CCc2sccc2C)CCN(Cc2cccnc2)C1` (stereo not drawn) [Compound 283, 3-((3-(ethoxymethyl)-3-(2-(3-methylthiophen-2-yl)ethyl)pyrrolidin-1-yl)methyl)pyridine], the ED50 was < 10 mg/kg.

On to `CCOCC1(CCc2cc(C)cs2)CCN(Cc2cccnc2)C1` (stereo not drawn) [Compound 284, 3-((3-(ethoxymethyl)-3-(2-(4-methylthiophen-2-yl)ethyl)pyrrolidin-1-yl)methyl)pyridine], for which the ED50 was < 10 mg/kg.

Consider `CCOCC1(CCc2ccc(C)s2)CCN(Cc2cccnc2)C1` (stereo not drawn) [Compound 285, 3-((3-(ethoxymethyl)-3-(2-(5-methylthiophen-2-yl)ethyl)pyrrolidin-1-yl)methyl)pyridine], for which the ED50 is > 10 mg/kg.

`CCOCC1(CCc2ccsc2C)CCN(Cc2cccnc2)C1` (stereo not drawn) [Compound 286, 3-((3-(ethoxymethyl)-3-(2-(2-methylthiophen-yl)ethyl)pyrrolidin-1-yl)methyl)pyridine]: the ED50 is < 10 mg/kg.

In the case of `CCOCC1(CCc2csc(C)c2)CCN(Cc2cccnc2)C1` (stereo not drawn) [Compound 287, 3-((3-(ethoxymethyl)-3-(2-(5-methylthiophen-yl)ethyl)pyrrolidin-1-yl)methyl)pyridine], the ED50 was < 10 mg/kg.

On to `CCOCC1(CCc2cscc2C)CCN(Cc2cccnc2)C1` (stereo not drawn) [Compound 288, 3-((3-(ethoxymethyl)-3-(2-(4-methylthiophen-yl)ethyl)pyrrolidin-1-yl)methyl)pyridine], for which the ED50 was < 10 mg/kg.

`CCOCC1(CCc2ccc(Cl)cc2)CCN(Cc2cccnc2)C1` (stereo not drawn) [Compound 289, 3-((3-(4-chlorophenethyl)-3-(ethoxy-methyl)pyrrolidin-1-yl)methyl)pyridine]: the ED50 was > 10 mg/kg.

Take `CCOCC1(CCc2ccc(F)cc2)CCN(Cc2cccnc2)C1` (stereo not drawn) [Compound 290, 3-((3-(ethoxy-methyl)-3-(4-fluoro-phenethyl)pyrrolidin-1-yl)methyl)pyridine]: the ED50 was < 10 mg/kg.

As to `CCOCC1(CCc2ccc(C)cc2)CCN(Cc2cccnc2)C1` (stereo not drawn) [Compound 291, 3-((3-(ethoxymethyl)-3-(4-methyl-phenethyl)pyrrolidin-1-yl)methyl)pyridine], the ED50 was > 10 mg/kg.

The values are drawn from patent US11584765B2 (priority 2017, dated 2023).
